# Experimental data taken from patent US20260132172A1, “IN VITRO BIOSYNTHESIS OF DIVERSE PYRIDINE-BASED MACROCYCLIC PEPTIDES” (The Brd. of Trustees of the Univ. of Illinois, priority 2022, published 2026).
# Where a SMILES comes first, the peptide text is derived from it. The star is where a group is joined. 5FAM = O=C1OC2(c3ccc(O)cc3Oc3cc(O)ccc32)c2ccc(C(=O)*)cc21
# Experiments:
# MroB/C = MroB/C dehydration (Dha formation) of MroA precursor peptide variants, MALDI-TOF-MS / LC-MS/MS; assay type: biochemical, Micromonospora rosaria; conditions: for dehydration by MroBC (site and extent): MroBC assays followed by LC-MS/MS analysis, result in words
# Protocol: (§1) In a 0.65 mL protein low-binding Eppendorf tube placed on ice. 0.75 μL of purified mroA variant template DNA was mixed with 0.75 μL of Solution B and 1 μL of Solution A of PURExpress In vitro Protein Synthesis Kit (E6800L) purchased from NEB (total volume of reaction is 2.5 μL). The translation reactions were performed at 37° C. for 1 h on an aluminum block.
# For a full MroBCD substrate scope investigation, a total translation volume for each variant of 7.5 μL was performed. 1.5 μL of 90 mM iodoacetamide (IAA) was added to quench dithiothreitol (DTT) in the translation reaction mixture, a thiol-based nucleophile that can react with electrophilic dehydroalanines generated from MroBC-catalyzed dehydration assays. The translation product was split into two parts with these corresponding volumes: 3 μL and 6 μL. In the 6 μL part. 10.2 μL of the enzyme mix containing enzymes and cofactors was added along with 1.8 μL 90 mM ATP (pH 7.5), which was used to initiate the reaction. The enzyme mix was made by adding these components in the following order: HEPES pH 7.5, MgCl2, glutamate, T. bispora tRNA^Glu (CUC), thermostable inorganic pyrophosphatase (TIPP), TEV (L56V/S135G/S219V) (w/w ratio with a total amount of MBP-tagged protein=1:10), MBP-MroB, MBP-MroC, and T. bispora GluRS. The enzyme mix was incubated 25 min at room temperature before adding to the translation product to facilitate in situ TEV-catalyzed cleavage of MBP from MBP-MroB and MBP-MroC. The enzymatic reaction proceeded for 1 h at room temperature. Overall, the concentration of components in the 18 μL reaction mix is as follows: 50 mM HEPES pH 7.5, 5 mM MgCl2. L-glutamate 1 mM, 3 μM T. bispora tRNA^Glu, 1 μM T. bispora GluRS, 2 μM MBP-MroB, 2 μM MBP-MroC, […], 0.027 U/μL TIPP, and 5 mM IAA. In addition, the 3 μL part was incubated with the same buffer lacking enzymes and tRNA as a translation control.
# The reactions were performed similarly as described above, with 10 μM substrate concentration and without IAA. The total volume of each reaction is 100 μL.
# Enzymatic assays were desalted using solid-phase extraction prior to LC-ESI-MS/MS analysis. Specifically, except for the thiazol(in)es-containing pyritide (which utilize 8 mg Pierce C18 Spin Column), the samples were applied to Toptip C18 (10-200 μL, Glygen Corp) wetted with 50 μL of 80% acetonitrile (0.1% formic acid) and equilibrate with 150 μL of 0.1% formic acid following the manufacturer instructions. The C18 columns (tips) are then washed with 150 μL of 0.1% formic acid and eluted using 100 μL 80% acetonitrile (0.1% formic acid). The samples were then dried utilizing lyophilization and redissolved in 25% acetonitrile (80 μL for enzymatic assays of in vitro-translated substrates and 200 μL for enzymatic assays of purified substrates). Then 20 μL of each sample was injected into an Agilent AdvanceBio Peptide Plus column (2.1×150 mm, 2.7 μm) equipped with an Agilent 6545B Q-TOF interfaced with an Agilent 1290 Infinity II LC system. Mobile phase solvents were composed of H2O, 0.1% formic acid (Solvent A), and acetonitrile 0.1% formic acid (Solvent B). The column compartment was maintained at 35° C. during all experiments. The column was equilibrated with 5 column volumes of starting mobile phase (95% A and 5% B) between injections. The gradient of all LC runs was as follows: 0-2 min: 95% A 5% B, 2-3 min: 70% A 30% B, 3-18 min: 20% A 80% B, 18-20 min: 5% A 95% B. The samples were run to waste for the first 3 min before applying to the mass spectrometer. Mass range was set from 100 to 1700 m/z (except for 412MroA1 W7G: 100-3000 m/z). MS parameters were as follows: gas, 320° C. at 8 L/min: nebulizer, 35 psig: nozzle voltage, 1000 V: sheath gas, 350° C. at 11 L/min: capillary, 3500 V: fragmentor, 125 V: skimmer, 65 V: MS scan rate (10) spectra/s): MS-MS scan rate (5 spectra/s); and isolation width (MS/MS), 1.3 m z. […]
# MroD [1] = experiment: MroD [4+2] macrocyclization of didehydrated MroA2 variants, MALDI-TOF-MS; assay type: biochemical, Micromonospora rosaria; set-up: key: +++ indicates enzyme activity roughly equal to wild-type MroA2; ++ indicates modestly reduced enzyme activity; + indicates severely reduced enzyme activity; − indicates no detectable enzyme activity (no macrocycles observed); conditions: MroA2 multi-site variants; qualitatively estimated from leader peptide vs remaining didehydrated intermediate
# Protocol: After incubation, the enzyme reaction (18 μL) was split into two equal parts. One part was treated with MBP-MroD such that the final concentration of MBP-MroD is 3 μM, and the other part was added the same volume but with buffer lacking MBP-MroD (50 mM HEPES, 300 mM NaCl, 2.5% glycerol, 0.5 mM TCEP). The reaction further proceeded for 1.5 h at room temperature. All reaction mixture was then desalted with solid-phase extraction using Ziptip with 0.6 μL C18 resin (EMD Millipore) and crystallized on an MTP384 steel target plate using either saturated sinapic acid or 50 mg/mL Super DHB [dissolved in 60% acetonitrile and 0.1% trifluoroacetic acid (TFA)] as the matrix. The crystallized spots were then analyzed using MALDI-TOF-MS (Bruker Ultraflex). The external standard for MALDI-TOF-MS analysis is ProteoMass Peptide and Protein MALDI-MS Calibration Kit (Sigma).
# MroBCD = MroBCD treatment of precursor peptides, overall pyritide biosynthesis; assay type: biochemical, Micromonospora rosaria; conditions: result in words
# Protocol: as §1
# For a full MroBCD substrate scope investigation, a total translation volume for each variant of 7.5 μL was performed. 1.5 μL of 90 mM iodoacetamide (IAA) was added to quench dithiothreitol (DTT) in the translation reaction mixture, a thiol-based nucleophile that can react with electrophilic dehydroalanines generated from MroBC-catalyzed dehydration assays. The translation product was split into two parts with these corresponding volumes: 3 μL and 6 μL. In the 6 μL part. 10.2 μL of the enzyme mix containing enzymes and cofactors was added along with 1.8 μL 90 mM ATP (pH 7.5), which was used to initiate the reaction. […]
# After incubation, the enzyme reaction (18 μL) was split into two equal parts. […] The crystallized spots were then analyzed using MALDI-TOF-MS (Bruker Ultraflex). […]
# [2] = biological target: MBP-MroD (Micromonospora rosaria MroD with maltose-binding protein fused to the N-terminus) (Micromonospora rosaria) [MBP: P0AEX9]; experiment: fluorescence polarization, MBP-MroD titrated against labeled peptide
# [3] = biological target: MBP-MroB (Micromonospora rosaria MroB with maltose-binding protein fused to the N-terminus) (Micromonospora rosaria) [MBP: P0AEX9]; experiment: fluorescence polarization, MBP-MroB titrated against labeled peptide
# MBP-MroB = experiment: Fluorescence polarization to measure KD with MroB; assay type: binding, Micromonospora rosaria
# Protocol: (§2) All proteins and peptides were prepared in the 0.5× storage buffer before concentration/FP measurement. Experiments were done in triplicates. Stock fluorescein-labeled peptide was measured concentration using A490 (ε: 70,000 M^−1 cm^−1). Initial sample was prepared: 5 nM labelled Δ12MroA1 (for MroD; for MroB, only 2 nM labelled Δ12MroA1 was used), 10 μM MBP-MroB (A280 ε: 178,885 M^−1 cm^−1) or 10 μM MBP-MroD (A280 ε:115,740 M^−1 cm^−1). In a black 96-well plate (Corning 3686), 50 μL of initial sample was added to the first well, followed by 11 3-fold dilutions into subsequent wells containing 5 nM labeled Δ12MroA1. The plate was covered from light and incubated at room temperature for 1 h, and then fluorescence polarization was measured (Biotek Synergy H4 hybrid reader) using the following filter (Excitation: Emission—485 nm/20 nm: 518 nm/20 nm). The obtained data was converted to anisotropy value and plotted against protein concentration. Using the OriginPro software, the data were fitted to receptor depletion equation:^11
# (§3) Where: y=anisotropy value, A1=minimum anisotropy, A2=maximum anisotropy, Lt=probe concentration, and x=total enzyme concentration.
# MBP-MroD = experiment: Fluorescence polarization to measure KD with MroD; assay type: binding, Micromonospora rosaria
# Protocol: as §2, §3
# MroB = experiment: Competition fluorescence polarization with fluorescein-Δ12MroA1, MroB; assay type: binding, Micromonospora rosaria; conditions: for IC50: competition FP, 80 nM enzyme, 5 nM labeled Δ12MroA1
# Protocol: (§4) The initial sample contained 80 nM enzyme, 5 nM labeled Δ12MroA1 peptide, and competitor peptide (concentration is from 20 μM to 100 μM, depending on the experiment). In a black 384-well plate (Corning 3575), 30 μL of initial sample was added to the first well, followed by 13 2-fold dilutions into subsequent wells containing 80 nM MBP-MroB and 5 nM labeled Δ12MroA1. The plate was covered from light and incubated at room temperature for 10 min, and then fluorescence polarization was measured (Biotek Synergy H4 hybrid reader) using the following filter (Ex: Em—485 nm/20 nm: 518 nm/20 nm). The obtained data was converted to anisotropy value and plotted against peptide concentration, and fitted to dose-response function:
# (§5) Where: y=anisotropy value, A1=minimum anisotropy, A2=maximum anisotropy, p=Hill's coefficient, x=competitor concentration. The obtained IC50 was used to calculate inhibitor constant Krusing the following equation: 12
# (§6) In cases where competitor concentration was not high enough to achieve a plateau, the competition curve was fitted with minimum anisotropy fixed to be the same value as the anisotropy value of the free probe solution. This calculation assumed that the labeled peptide was completely displaced from the enzyme binding pocket at a very high concentration of the competitor. […] The specific minimum anisotropy used in this experiment for both MroB and MroD was 65.
# MroD [4] = experiment: Competition fluorescence polarization with fluorescein-Δ12MroA1, MroD; assay type: binding, Micromonospora rosaria; conditions: competition FP, 80 nM enzyme, 5 nM labeled Δ12MroA1
# Protocol: as §4, §5, §6
compound,measurement,setting,value
"SGFFGRSWLI [MroA2, wild-type precursor peptide of M. rosaria]",Dha formation,"MroB/C; MroA2 multi-site variants, in vitro translated, MALDI-TOF-MS",2 Dha
same,Relative MroD conversion,MroD [1],+++
same,overall pyritide biosynthesis (dehydration and macrocyclization) by MroBCD,MroBCD,yielding the expected pyritides
fluorescein-Δ12MroA1 (Δ12MroA1 N-terminally labeled with fluorescein) (peptide),Kd,[2],12 nM
same,Kd,[3],60 nM
CC[C@H](C)[C@H](NC(=O)[C@@H](NC(=O)[C@H](Cc1c[nH]c2ccccc12)NC(=O)[C@H](CO)NC(=O)CNC(=O)[C@H](CC(C)C)NC(=O)[C@H](Cc1c[nH]c2ccccc12)NC(=O)CNC(=O)[C@H](CO)NC(=O)[C@H](C)NC(=O)CNC(=O)[C@@H](NC(=O)[C@H](CCC(=O)O)NC(=O)[C@@H](NC(=O)[C@H](CC(N)=O)NC(=O)CNC(=O)[C@H](CC(C)C)NC(=O)CNC(=O)CNC(=O)[C@@H](NC(=O)[C@H](CO)NC(=O)[C@H](CC(C)C)NC(=O)[C@H](C)NC(=O)[C@H](C)NC(=O)[C@H](CC(C)C)NC(=O)[C@H](CCC(=O)O)NC(=O)[C@H](CCC(=O)O)NC(=O)[C@H](CC(=O)O)NC(=O)[C@@H](NC(=O)[C@H](C)NC(=O)[C@H](CC(C)C)NC(=O)[C@H](CC(=O)O)NC(=O)[C@H](CC(C)C)NC(=O)[C@H](CC(=O)O)NC(=O)[C@@H](NC(=O)[C@@H](NC(=O)[C@H](CC(=O)O)NC(=O)[C@H](CC(C)C)NC(=O)[C@H](CC(=O)O)NC(=O)[C@H](CO)NC(=O)c1ccc2c(c1)C(=O)OC21c2ccc(O)cc2Oc2cc(O)ccc21)[C@@H](C)CC)C(C)C)C(C)C)C(C)C)[C@@H](C)O)C(C)C)C(C)C)C(=O)O [fluorescein-Δ12MroA1] (5FAM-SDLDIVDLDLAVDEELAALSVGGLGNTEVGASGWLGSWVI-OH),Kd,MBP-MroB,~60 nM
same,Kd,MBP-MroD,~12 nM
"Ac-GASGWLGSWVI-OH [GlyAla-MroA1 core, Ac-GASGWLGSWVI]",dehydration by MroBC (site and extent),MroB/C,only Ser6 is dehydrated
same,IC50,MroB,27200 ± 1900 nM
same,IC50,MroD [4],40900 ± 5000 nM
H-SDLDIVDLDLAVDEELAALSVGGLGNTEVGASGWLGSWVI-OH [Δ12MroA1],IC50,MroB,680 ± 40 nM
same,overall pyritide biosynthesis (dehydration and macrocyclization) by MroBCD,MroBCD,full dehydration and macrocyclization
same,IC50,MroD [4],900 ± 20 nM
CC[C@H](C)[C@H](NC(=O)[C@H](CC(=O)O)NC(=O)[C@H](CC(C)C)NC(=O)[C@H](CC(=O)O)NC(=O)[C@@H](N)CO)C(=O)N[C@H](C(=O)N[C@@H](CC(=O)O)C(=O)N[C@@H](CC(C)C)C(=O)N[C@@H](CC(=O)O)C(=O)N[C@@H](CC(C)C)C(=O)N[C@@H](C)C(=O)N[C@H](C(=O)N[C@@H](CC(=O)O)C(=O)N[C@@H](CCC(=O)O)C(=O)N[C@@H](CCC(=O)O)C(=O)N[C@@H](CC(C)C)C(=O)N[C@@H](C)C(=O)N[C@@H](C)C(=O)N[C@@H](CC(C)C)C(=O)N[C@@H](CO)C(=O)N[C@H](C(=O)NCC(=O)NCC(=O)N[C@@H](CC(C)C)C(=O)NCC(=O)N[C@@H](CC(N)=O)C(=O)N[C@H](C(=O)N[C@@H](CCC(=O)O)C(=O)N[C@H](C(=O)NCC(=O)N[C@@H](C)C(=O)N[C@@H](CO)C(=O)NCC(=O)N[C@@H](Cc1c[nH]c2ccccc12)C(=O)N[C@@H](CC(C)C)C(=O)NCC(=O)N[C@@H](CO)C(=O)N[C@@H](Cc1c[nH]c2ccccc12)C(=O)N[C@H](C(=O)N[C@H](C(=O)OC)[C@@H](C)CC)C(C)C)C(C)C)[C@@H](C)O)C(C)C)C(C)C)C(C)C [Δ12MroA1-COOMe] (H-SDLDIVDLDLAVDEELAALSVGGLGNTEVGASGWLGSWVI-OMe),IC50,MroB,4200 ± 1700 nM
same,loss in binding affinity to MroB,MroB; relative to Δ12MroA1,~8 fold
same,IC50,MroD [4],400 ± 60 nM
H-SDLDIVDLDLAVDEELAALSVGGLGNTEVGASGWLGSGVI-OH [Δ12MroA1-W7G],dehydration by MroBC (site and extent),MroB/C,only Ser1 is predominantly dehydrated
same,IC50,MroB,8100 ± 3900 nM
same,IC50,MroD [4],2400 ± 300 nM
